Data: paper PMC11477000, “Enantioselective Binding of Proton Pump Inhibitors to Alpha1-Acid Glycoprotein and Human Serum Albumin—A Chromatographic, Spectroscopic, and In Silico Study” (International Journal of Molecular Sciences, 2024)

Tests used:
[1] = system: α1-acid glycoprotein (AGP); experiment: HPLC on AGP-based chiral stationary phase (ChromTech Chiral-AGP column); assay type: binding, human; details: 10 mM pH 7 phosphate buffer, 25 °C
Method: HPLC using a protein-based chiral stationary phase is a fully automated method for obtaining rapid information about the binding of compounds to the respective proteins. Enantioseparation occurs in the case of unequal binding constants of the individual enantiomers to the immobilized proteins, thus allowing enantioselective binding to be characterized even when a racemic mixture was injected. As a preliminary step, the enantiospecific binding was investigated on columns containing AGP and HSA in various alcohol:buffer mixtures. A pH 7 phosphate buffer was employed as the aqueous part of the mobile phase, while for the organic part, three different alcohols were evaluated. […]
(§1) Chromatographic measurements were carried out on two separate HPLC systems. The AGP binding study was performed on a Waters 2695e chromatographic system paired with a Waters 2996 PDA detector, controlled by Empower 3 FR5 (Waters Corp., Milford, MA, USA), while the HSA binding study was performed on an Agilent 1100 HPLC system, consisting of an inline degasser (G1322A), a quaternary pump (G1311A), an automatic injector (G1329A) paired with sample thermostat (G1330A), a column thermostat (G1316A), and a diode array detector (G1315A) with Agilent Chemstation B04.03-SP2 software (Agilent, Bronnwald, Germany). For the binding studies, two protein-based chiral stationary phases were utilized. The chromatographic binding study for AGP was conducted on a ChromTech Chiral-AGP column (150 mm × 4.0 mm; ChromTech Ltd., Congleton, UK), while the binding study for HSA was performed on a Daicel Chiralpak HSA column (50 mm × 4.0 mm; Daicel Corp., Osaka, Japan). The detection wavelength was 210 nm for all measurements. The stock solutions of PPIs were prepared at a concentration of 1 mg/mL in MeOH. Subsequent dilutions were prepared using water. The injected samples were mixed and diluted from the stock solutions. The final concentration for the eutomer was 0.2 mg/mL, and for the distomer, it was 0.1 mg/mL. A volume of 2 μL was injected. To mitigate the instability of PPIs in aqueous solutions, the samples were kept at a temperature of 4 °C.

[2] = molecular target: T1, human serum albumin (HSA) (Homo sapiens, UniProt P02768); experiment: HPLC on HSA-based chiral stationary phase (Daicel Chiralpak HSA column); assay type: binding; details: HSA column, 10 mM pH 7 phosphate buffer, 25 °C
T1 sequence (P02768 25-609): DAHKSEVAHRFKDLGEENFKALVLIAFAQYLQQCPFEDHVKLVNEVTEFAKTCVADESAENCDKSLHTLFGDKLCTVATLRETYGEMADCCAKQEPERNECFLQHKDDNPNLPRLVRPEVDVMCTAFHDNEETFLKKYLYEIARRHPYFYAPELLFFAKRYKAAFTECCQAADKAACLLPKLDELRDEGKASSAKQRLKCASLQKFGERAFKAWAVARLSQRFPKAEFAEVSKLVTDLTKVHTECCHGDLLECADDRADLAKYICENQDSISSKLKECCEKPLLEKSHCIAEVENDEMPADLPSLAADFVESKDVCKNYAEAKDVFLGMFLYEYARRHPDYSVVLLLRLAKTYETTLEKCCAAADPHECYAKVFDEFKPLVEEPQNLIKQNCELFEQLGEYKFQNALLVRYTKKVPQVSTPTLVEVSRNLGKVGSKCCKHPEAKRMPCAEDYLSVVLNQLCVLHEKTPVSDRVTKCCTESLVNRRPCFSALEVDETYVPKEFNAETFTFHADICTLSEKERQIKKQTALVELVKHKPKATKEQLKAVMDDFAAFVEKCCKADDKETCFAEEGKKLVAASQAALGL
Method: HPLC using a protein-based chiral stationary phase is a fully automated method for obtaining rapid information about the binding of compounds to the respective proteins. Enantioseparation occurs in the case of unequal binding constants of the individual enantiomers to the immobilized proteins, thus allowing enantioselective binding to be characterized even when a racemic mixture was injected. As a preliminary step, the enantiospecific binding was investigated on columns containing AGP and HSA in various alcohol:buffer mixtures. A pH 7 phosphate buffer was employed as the aqueous part of the mobile phase, while for the organic part, three different alcohols were evaluated.
In the following step, we investigated the effect of changing some other chromatographic conditions on the protein binding. The pH of the aqueous phase influenced the protonation state of both the analyte and the proteins. It should be noted that the pH tolerance of protein-based columns is narrow due to the possible denaturation of proteins. Taking into account the guidelines of the manufacturer, three different pH values were investigated (pH 6, 6.5, and 7) at a 95:5 (v/v%) buffer:IPA eluents ratio [49]. The buffer was uniformly 10 mM phosphate. […] The effect of different buffer constituents was also evaluated. In addition to phosphate buffer, ammonium acetate, ammonium bicarbonate, and sodium citrate were tested and compared under the same conditions.
as §1

[3] = molecular target: T1, human serum albumin (HSA); experiment: Displacement chromatography on HSA column with warfarin and ibuprofen as competitors; assay type: binding; details: IPA:10 mM pH 7 phosphate buffer 1:99, 25 °C
Method: For identification of the binding site of HSA, a displacement chromatography and fluorescence displacement study were performed. In the case of chromatography, to the mobile phase, increasing concentrations of the competitors, warfarin and ibuprofen, that are known to bind to specific binding sites on HSA, Sudlow site I and Sudlow site II, respectively, were added. In the case of the fluorescence displacement study, the fluorescence quenching data of the PPI-HSA system in the presence of warfarin and ibuprofen were investigated.
(Chromatographic parameter: Column temperature: 25 °C,
mobile phase: IPA : 10 mM pH 7 sodium phosphate buffer 1:99, flow rate: 0.7 mL/min, detection

In the case of `COCCCOc1ccnc(C[S+]([O-])c2nc3ccccc3[nH]2)c1C` (stereo not shown) [Rabeprazole, rabeprazole], the “k1 retention factor (first-eluting enantiomer)” value (“k1 retention factor” for short) ([1]; 2.5% IPA) is reported as 14.89, the “k2 retention factor (second-eluting enantiomer)” value (from here on “k2 retention factor”) ([1]; 2.5% IPA) is reported as 21.66 and the “k1 retention factor” value ([1]; 5% EtOH) is reported as 13.04. For the same compound, the “k2 retention factor” value ([1]; 5% EtOH) was 20.84, the “k1 retention factor” value ([1]; 5% IPA) was 6.68 and the “k2 retention factor” value ([1]; 5% IPA) was 7.89. For the same compound, the “k1 retention factor” value ([1]; 5% MeOH) was 20.89, the “k2 retention factor” value ([1]; 5% MeOH) was 42.82 and the “k1 retention factor” value ([1]; 7.5% EtOH) was 7.21. For the same compound, the “k2 retention factor” value ([1]; 7.5% EtOH) was 10.50, the “k2 retention factor” value ([1]; 7.5% IPA) was 3.90 and the “k1 retention factor” value ([1]; 7.5% MeOH) was 12.90. For the same compound, the “k2 retention factor” value ([1]; 7.5% MeOH) was 26.14, the “k1 retention factor” value ([1]; 10% EtOH) was 4.39 and the “k2 retention factor” value ([1]; 10% EtOH) was 5.89. The “k1 retention factor” value ([1]; 10% IPA) was 2.47, the “k2 retention factor” value ([1]; 10% IPA) was 2.47 and the “k1 retention factor” value ([1]; 10% MeOH) was 8.63. For the same compound, the “k2 retention factor” value ([1]; 10% MeOH) was 16.71, the “k1 retention factor” value ([1]; 12.5% IPA) was 1.72 and the “k2 retention factor” value ([1]; 12.5% IPA) was 1.72. The “k1 retention factor” value ([1]; 15% EtOH) was 2.11, the “k2 retention factor” value ([1]; 15% EtOH) was 2.48 and the “k1 retention factor” value ([1]; 15% IPA) was 1.27. The “k2 retention factor” value ([1]; 15% IPA) was 1.27, the “k1 retention factor” value ([1]; 15% MeOH) was 5.97 and the “k2 retention factor” value ([1]; 15% MeOH) was 11.00. For the same compound, the “k1 retention factor” value ([2]; 1% EtOH) was 6.16, the “k2 retention factor” value ([2]; 1% EtOH) was 6.16 and the “k1 retention factor” value ([2]; 1% IPA) was 7.21. For the same compound, the “k2 retention factor” value ([2]; 1% IPA) was 7.21, the “k1 retention factor” value ([2]; 1% MeOH) was 6.61 and the “k2 retention factor” value ([2]; 1% MeOH) was 6.61. The “k1 retention factor” value ([2]; 2.5% EtOH) was 3.97, the “k2 retention factor” value ([2]; 2.5% EtOH) was 3.97 and the “k1 retention factor” value ([2]; 2.5% IPA) was 5.45. The “k2 retention factor” value ([2]; 2.5% IPA) was 5.45, the “k1 retention factor” value ([2]; 2.5% MeOH) was 5.08 and the “k2 retention factor” value ([2]; 2.5% MeOH) was 5.08. For the same compound, the “k1 retention factor” value ([2]; 5% EtOH) was 2.87, the “k2 retention factor” value ([2]; 5% EtOH) was 2.87 and the “k1 retention factor” value ([2]; 5% IPA) was 3.32. The “k2 retention factor” value ([2]; 5% IPA) was 3.32, the “k1 retention factor” value ([2]; 5% MeOH) was 3.68 and the “k2 retention factor” value ([2]; 5% MeOH) was 3.68. For the same compound, the “k1 retention factor” value ([2]; 7.5% EtOH) was 2.16, the “k2 retention factor” value ([2]; 7.5% EtOH) was 2.16 and the “k1 retention factor” value ([2]; 7.5% IPA) was 2.37. For the same compound, the “k2 retention factor” value ([2]; 7.5% IPA) was 2.37, the “k1 retention factor” value ([2]; 7.5% MeOH) was 2.95 and the “k2 retention factor” value ([2]; 7.5% MeOH) was 2.95. For the same compound, the “k1 retention factor” value ([2]; 10% EtOH) was 1.66, the “k2 retention factor” value ([2]; 10% EtOH) was 1.66 and the “k1 retention factor” value ([2]; 10% IPA) was 1.79. The “k2 retention factor” value ([2]; 10% IPA) was 1.79, the “k1 retention factor” value ([2]; 10% MeOH) was 2.34 and the “k2 retention factor” value ([2]; 10% MeOH) was 2.34. The “k1 retention factor” value ([2]; 12.5% IPA) was 1.37, the “k2 retention factor” value ([2]; 12.5% IPA) was 1.37 and the k retention factor ([3]; ibuprofen 0 mM) was 7.21. The k retention factor ([3]; ibuprofen 0.01 mM) was 6.67, the k retention factor ([3]; ibuprofen 0.05 mM) was 5.87 and the k retention factor ([3]; ibuprofen 0.1 mM) was 5.05. It also gave a k retention factor ([3]; warfarin 0 mM) of 7.21, a k retention factor ([3]; warfarin 0.01 mM) of 5.81 and a k retention factor ([3]; warfarin 0.05 mM) of 4.98. The k retention factor ([3]; warfarin 0.1 mM) was 4.73.
